We go through one molecule from PMC10176470, “Engaging a Non-catalytic Cysteine Residue Drives Potent and Selective Inhibition of Caspase-6” (Journal of the American Chemical Society, 2023).

This test deals with proteins of HEK293T cells transiently overexpressing caspase-6 (Homo sapiens, UniProt P49591). It is filed as cell-based. The following applies: exp_ref Probe; protein SARS (P49591); analysis C6.
Chain of proteins of HEK293T cells transiently overexpressing caspase-6 (P49591 whole entry, looked up): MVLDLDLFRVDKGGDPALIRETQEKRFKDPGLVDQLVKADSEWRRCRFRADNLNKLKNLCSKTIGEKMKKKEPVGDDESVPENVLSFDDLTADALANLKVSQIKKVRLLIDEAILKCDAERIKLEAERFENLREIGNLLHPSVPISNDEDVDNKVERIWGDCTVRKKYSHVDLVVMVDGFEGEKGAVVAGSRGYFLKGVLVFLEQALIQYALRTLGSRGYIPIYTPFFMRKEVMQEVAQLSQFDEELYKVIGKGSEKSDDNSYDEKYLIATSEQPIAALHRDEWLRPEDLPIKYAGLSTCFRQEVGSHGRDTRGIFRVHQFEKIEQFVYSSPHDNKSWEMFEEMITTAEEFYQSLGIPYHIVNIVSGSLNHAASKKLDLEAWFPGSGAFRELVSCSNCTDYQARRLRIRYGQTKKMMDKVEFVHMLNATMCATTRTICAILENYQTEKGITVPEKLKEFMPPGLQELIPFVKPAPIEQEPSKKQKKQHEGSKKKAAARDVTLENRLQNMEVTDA

In turn, `C#CCOc1ccc([C@@H]2C[C@@H](C(=O)Nc3ccc(OC(F)(F)F)cc3)CN(S(=O)(=O)C=C)C2)cc1` (relative stereo) [13-t] showed an enrich.exp.med of 0.8697.
